The source made the active and inactive calls. The rule behind the calls is not given here.
Assays:
[1] = molecular target: T1, UDP-galactopyranose mutase (Mycobacterium tuberculosis, UniProt P9WIQ1); test: Inhibition of His6-tagged Mycobacterium tuberculosis reduced UDP-galactopyranose mutase expressed in Escherichia coli BL21 assessed as reduction in UDPGalf production using UDPGalp as substrate in presence of TritonX100 by HPLC analysis
[2] = molecular target: T1, UDP-galactopyranose mutase; test: Inhibition of His6-tagged Mycobacterium tuberculosis reduced UDP-galactopyranose mutase expressed in Escherichia coli BL21 assessed as reduction in UDPGalf production using UDPGalp as substrate by HPLC analysis
[3] = molecular target: UDP-galactopyranose mutase (Mycobacterium tuberculosis) (UniProt P9WIQ1); test: Binding affinity to His6-tagged Mycobacterium tuberculosis UDP-galactopyranose mutase expressed in Escherichia coli BL21 assessed as increase in melting temperature using UDP-Galp as substrate at < 100 uM in presence of Sypro Orange by thermal shift assay
[4] = molecular target: UDP-galactopyranose mutase (Mycobacterium tuberculosis) (UniProt P9WIQ1); test: Binding affinity to His6-tagged Mycobacterium tuberculosis UDP-galactopyranose mutase expressed in Escherichia coli BL21 assessed as change melting temperature up to 600 uM in presence of Sypro Orange by thermal shift assay
[5] = molecular target: UDP-galactopyranose mutase (Mycobacterium tuberculosis) (UniProt P9WIQ1); test: Binding affinity to His6-tagged Mycobacterium tuberculosis reduced UDP-galactopyranose mutase expressed in Escherichia coli BL21 assessed as increase in corrected fluorescence intensity at 100 to 1000 uM in presence of ANS by fluorescence-based binding assay; settings: dose 100-1000 µM
[6] = molecular target: UDP-galactopyranose mutase (Mycobacterium tuberculosis) (UniProt P9WIQ1); test: Binding affinity to His6-tagged Mycobacterium tuberculosis UDP-galactopyranose mutase expressed in Escherichia coli BL21 assessed as increase in melting temperature using UDP-Galp as substrate at 600 to 800 uM in presence of Sypro Orange by thermal shift assay; settings: dose 600-800 µM
[7] = Aggregation property of compound in PBS at pH 7 assessed as critical aggregation concentration by DLS assay; assay type: physicochemical; settings: buffer
[8] = molecular target: T1, UDP-galactopyranose mutase; test: Inhibition of Mycobacterium tuberculosis UDP-galactopyranose mutase expressed in Escherichia coli BL21 using […] as substrate by cornish-bowden plot analysis
[9] = molecular target: T1, UDP-galactopyranose mutase; test: Inhibition of Mycobacterium tuberculosis UDP-galactopyranose mutase expressed in Escherichia coli BL21 using […] as substrate by Dixon plot analysis
[10] = molecular target: UDP-galactopyranose mutase (Mycobacterium tuberculosis) (UniProt P9WIQ1); test: Binding affinity to His6-tagged Mycobacterium tuberculosis UDP-galactopyranose mutase expressed in Escherichia coli BL21 assessed as decrease in melting temperature using UDP-Galp as substrate at 100 to 400 uM in presence of Sypro Orange by thermal shift assay; settings: dose 100-400 µM
[11] = molecular target: UDP-galactopyranose mutase (Mycobacterium tuberculosis) (UniProt P9WIQ1); test: Binding affinity to His6-tagged Mycobacterium tuberculosis reduced UDP-galactopyranose mutase expressed in Escherichia coli BL21 assessed as increase in corrected fluorescence intensity using UDP-Galp as substrate at 100 to 1000 uM in presence of ANS by fluorescence-based binding assay; settings: dose 100-1000 µM
[12] = molecular target: UDP-galactopyranose mutase (Mycobacterium tuberculosis) (UniProt P9WIQ1); test: Binding affinity to His6-tagged Mycobacterium tuberculosis UDP-galactopyranose mutase expressed in Escherichia coli BL21 assessed as decrease in melting temperature at 800 to 1000 uM in presence of Sypro Orange by thermal shift assay; settings: dose 800-1000 µM
[13] = Aggregation property of compound in PBS at pH 7 at 80 uM by DLS assay; assay type: physicochemical; settings: buffer, pH 7, 80 µM
[14] = molecular target: UDP-galactopyranose mutase (Mycobacterium tuberculosis) (UniProt P9WIQ1); test: Binding affinity to His6-tagged Mycobacterium tuberculosis UDP-galactopyranose mutase expressed in Escherichia coli BL21 assessed as change melting temperature at 20 uM in presence of Sypro Orange by thermal shift assay
[15] = molecular target: T1, UDP-galactopyranose mutase; test: Inhibition of His6-tagged Mycobacterium tuberculosis UDP-galactopyranose mutase expressed in Escherichia coli BL21 using […] as substrate by Dixon plot analysis

Chain of UDP-galactopyranose mutase (Mycobacterium tuberculosis) (P9WIQ1 whole entry, looked up): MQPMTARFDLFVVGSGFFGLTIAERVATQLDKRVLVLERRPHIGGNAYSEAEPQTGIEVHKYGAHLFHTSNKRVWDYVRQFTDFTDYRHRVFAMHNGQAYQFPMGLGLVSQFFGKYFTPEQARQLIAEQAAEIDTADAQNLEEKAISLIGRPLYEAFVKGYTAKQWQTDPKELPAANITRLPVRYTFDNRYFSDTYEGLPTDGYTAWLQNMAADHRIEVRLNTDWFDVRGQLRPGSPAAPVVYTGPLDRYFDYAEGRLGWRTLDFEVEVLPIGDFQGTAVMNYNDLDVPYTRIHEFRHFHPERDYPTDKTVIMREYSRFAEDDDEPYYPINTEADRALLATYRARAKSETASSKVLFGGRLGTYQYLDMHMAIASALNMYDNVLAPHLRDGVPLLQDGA
T1 sequence (P9WIQ1 whole entry): as the sequence (P9WIQ1 whole entry, looked up) above

OC(c1ccc(Cl)cc1)c1cn(-c2ccc(Cl)cc2)nn1 (stereo not given)
IC50 [1]: 2710 µM | IC50 [2]: 150 µM

O=C(CCc1cn(-c2ccc(Cl)cc2)nn1)Oc1ccc(Cl)cc1
IC50 [1]: 1260 µM | IC50 [2]: 530 µM

Cc1[nH]n(-c2ccc(Cl)cc2)c(=O)c1C(=O)c1ccc(Cl)cc1
Activity [3]: Active | Activity [4]: inactive | Activity [5]: Active | Activity [6]: Active | CAC [7]: > 50 µM | Ki [8]: ~400 µM | Ki [9]: ~135 µM | Activity [10]: Active | Activity [11]: Active | IC50 [1]: 590 µM | IC50 [2]: 880 µM | Activity [12]: Active | Activity [13]: Active | ΔTm [14]: 5 °C

Cc1cc(OC(=O)c2ccc(S(N)(=O)=O)cc2)n(-c2ccc(Cl)cc2)n1
Ki [15]: ~51 µM | IC50 [1]: 1130 µM | IC50 [2]: 500 µM

Cc1nn(-c2ccc(Cl)cc2)c(O)c1C(=O)c1ccccc1
IC50 [1]: 1510 µM | IC50 [2]: 610 µM

Cc1nn(-c2ccc(Cl)cc2)c(O)c1S(=O)(=O)c1ccc(Cl)cc1
IC50 [1]: 4340 µM | IC50 [2]: 225 µM

From ChEMBL document CHEMBL5370588, “Unraveling the unexpected aggregation behavior of Pyrazole-Based compounds Targeting Mycobacterium tuberculosis UDP-Galactopyranose mutase” (Bioorg Med Chem, 2023)
